Values of other authors in US20080213362A1, “COMPOSITIONS AND METHODS USING TORSEMIDE” (priority 2007, published 2008).

Assays:
[1] = 2.5 mg once daily
[2] = diabetic or pre-diabetic patient, even during treatment with an anti-diabetic agent

Cc1cccc(Nc2ccncc2S(=O)(=O)NC(=O)NC(C)C)c1 [torsemide]
anti-hypertensive effects [1]: statistically significant anti-hypertensive effects | effect on blood sugar levels [2]: worsen blood sugar levels
